Test results as given in US20020164397A1, “N-[N-(3, 3-DIMETHYLBUTYL)-L-ALPHA-ASPARTYL]-L-PHENYLALANINE 1-METHYL ESTER AS A SWEETENER IN CHEWING GUM” (priority 1998, published 2002).
“And” between values parts separate entries of the source, which are not always exact repeats. Equal values may be shown once. Where a SMILES comes first, the peptide text is derived from it.

Assays:
[1] = Sweetness intensity of chewing gums versus chewing time, trained panel of experts (0-15 scale); type: in vivo; conditions: for average sweetness loss rate at 6-10 minutes / average sweetness intensity at 6-10 minutes / average sweetness loss rate at 10-20 minutes / average sweetness intensity at 10-20 minutes: isosweet sweetener concentrations; for average sweetness loss rate at 6-10 minutes / average sweetness intensity at 6-10 minutes: chewing time 6-10 minutes; for average sweetness intensity at 6-10 minutes / average sweetness intensity at 10-20 minutes: scale 0-15; for average sweetness loss rate at 10-20 minutes / average sweetness intensity at 10-20 minutes: chewing time 10-20 minutes
Experimental: FIG. 1 is a plot of the sweetness intensity of chewing gum prepared with sugar (sucrose), saccharin, aspartame, acesulfame-K, sucralose or neotame as a function of chewing time. Each chewing gum comprises the corresponding sweetener at a sweetener concentration that provides an identical (“isosweet”) degree of sweetness. The sweetness intensity was measured by a trained panel of experts and is expressed as the amount of sweetness based on a sweetness intensity scale of 0-15 units.
The sweetness profile of neotame in chewing gum is illustrated in FIG. 1. Also illustrated in FIG. 1 is a comparison of the sweetness intensity profiles, as measured by a trained panel of experts, of chewing gums prepared with neotame, aspartame, acesulfame-K, saccharin, sucralose, and sugar (sucrose). The sweetness detected is expressed as the amount of sweetness based on a universal sweetness scale of 0-15, and the values were obtained by having subjects of the trained panel chew pieces of gum containing the sweetener and reporting perceived sweetness after various chewing intervals. Since each chewing gum was prepared with an “isosweet” concentration (i.e., same level of sweetness; e.g., 100 ppm neotame and 3000 ppm aspartame are isosweet concentrations) of the respective sweetener and the scale is a measure of absolute sweetness at any point during chewing, the different sweetener profiles can be compared directly to each other.
Table 1 summarizes the sweetness intensity loss rates and average sweetness intensities which occur at a chewing time period of between 6 and 10 minutes and those which occur at a chewing time period between 10 and 20 minutes for a variety of sweeteners. The sweetness intensity loss rate is calculated as the difference in sweetness intensities measured at any two time points divided by the number of minutes of the time interval, and approximates the mathematical slope of the downward trend of sweetness intensity over time.
These values were determined by calculating the average sweetness intensity measured at the specified evaluation times. For example, for the chewing gum comprising neotame at between 6 and 10 minutes, the average sweetness intensity is determined to be (5.2+4.6+4.2)/3=4.7.
The advantage of sweetness extension provided by neotame can also be illustrated by comparison of the sweetness intensity half-lives over time. Table 2 summarizes the half-lives of sweetness intensity of chewing gums comprising different sweeteners after the maximum sweetness intensities (around two minutes) are reached. The half-life is a measure of the time of chewing in which half of the sweetness is lost relative to the time in which the sweetness intensity maximum is achieved.
(§1) The sensory profiling of chewing gum samples was carried out using the Spectrum Method of Descriptive Analysis (Meilgaard, M., Civille, G. V., Carr, B. T, 1999. Sensory Evaluation Techniques, 3rd Ed. CRC Press, New York, p. 173-229). Extensive sensory training was conducted in order to familiarize the panel, consisting of 6-8 individuals, with a product category, exposing the panel to the flavor attributes of the category and in-depth practice by the panelists in the use of a fifteen point scale for describing intensity differences. Once trained, the method enabled the trained panelists to indicate the sensory intensity of either sweetness intensity or flavor intensity in a universal context, where 0 indicates “none” of the attribute present, 2 approximates “threshold” intensities, 5 “slight or low” level, 7.5 “moderate” intensity, 10 “strong” and 15 “extreme”.
Chewing of the gums was initiated by the panel leader while starting a timer. As the time intervals 0.25, 0.5, 1.0, 2.0, 3.0, 4.0, 6.0, 8.0, 10.0, 12.0, 16.0, and 20.0 minutes approached, the panel leader gave panelists a five second warning and then called out the time to rate the attributes. To minimize fatigue, 3-4 samples were evaluated during one session. […]

[2] = Peppermint flavor intensity of chewing gums versus chewing time, trained panel of experts (0-15 scale); type: in vivo
Experimental: FIG. 2 is a plot of peppermint flavor intensity verses chewing time of chewing gums prepared with isosweet levels of aspartame (3000 ppm) and neotame (100 ppm). The chewing gum prepared with aspartame comprised a 1.5 wt % peppermint flavor, while the four neotame chewing gums comprised peppermint flavor at concentrations of 1.5, 1.25, 1.00, and 0.75 wt %. The peppermint flavor intensity was measured by a trained panel of experts and is plotted as a function of chewing time. The peppermint flavor intensity is expressed as the amount of peppermint flavor based on a universal peppermint intensity scale of 0-15 units.
As in the case of sweetness intensity comparisons, since the chewing gums were prepared with an identical amount of flavor and the scale is a measure of absolute flavor at any point during chewing, the different flavor profiles can be compared directly to each other. The rate of flavor intensity loss of the chewing gum comprising neotame is 0.0875 flavor intensity units per minute, while that of chewing gum comprising aspartame was determined to be 0.150 flavor intensity units per minute. Thus, the rate of flavor loss of a chewing gum comprising neotame is nearly half that of the flavor loss for a chewing gum comprising aspartame at an isosweet level and containing an equal concentration of peppermint flavor.
Table 4 summarizes the half-lives of both sweetness and flavor of chewing gums prepared with aspartame (3000 ppm) with 1.5 wt % flavor and neotame (100 ppm) with 1.5, 1.25, 1.00, and 0.75 wt % flavor amounts. The half-life is the time in minutes for the intensity to fall to half of its maximum value (sweetness, 2 minutes; flavor, 4 minutes).
as §1
Chewing of the gums was initiated by the panel leader while starting a timer. As the time intervals 0.25, 0.5, 1.0, 2.0, 3.0, 4.0, 6.0, 8.0, 10.0, 12.0, 16.0, and 20.0 minutes approached, the panel leader gave panelists a five second warning and then called out the time to rate the attributes. To minimize fatigue, 3-4 samples were evaluated during one session. Samples were assessed in duplicate, presented in a balanced order, unwrapped in two ounce plastic cups, and randomly coded with three-digit numbers. The panelists were given a ten minute break between samples to minimize carry-over effects. Water, Mott's Natural Applesauce and unsalted soda crackers were given as palate cleansers.
The data was analyzed for standard ANOVA for across sample comparison of attributes at each chew time. Data was then plotted as a graph of intensities vs. chewing time yielding either a sweetness or flavor profile for the entire chew time.

[3] = relative to sucrose; cited from earlier work
[4] = chewing time in which half of the sweetness is lost relative to the sweetness intensity maximum, isosweet concentrations
[5] = 1.50% flavor, time for intensity to fall to half of its maximum (2 minutes), aspartame 3000 ppm / neotame 100 ppm
[6] = 1.50% flavor, time for intensity to fall to half of its maximum (4 minutes), aspartame 3000 ppm / neotame 100 ppm
[7] = 1.50% peppermint flavor, isosweet aspartame 3000 ppm / neotame 100 ppm
[8] = 0.75% peppermint flavor, neotame 100 ppm
[9] = 1.00% peppermint flavor, neotame 100 ppm
[10] = 1.25% peppermint flavor, neotame 100 ppm
[11] = flavor amounts less than full-flavored (reduced to at least around 50%)
[12] = full-flavored chewing gum, about 4 to about 20 minutes of chewing

For `CC1=CC(=O)[N-]S(=O)(=O)O1.[K+]` [acesulfame-K, the potassium salt of 3,4-dihydro-6-methyl-1,2,3-oxathiazine-4-one-2,2-dioxide], the “average sweetness loss rate at 6-10 minutes” value ([1]; chewing gum) was 0.45 intensity units/min, the “average sweetness intensity at 6-10 minutes” value ([1]; chewing gum) was 4.3 intensity units and the “average sweetness loss rate at 10-20 minutes” value ([1]; chewing gum) was 0.26 intensity units/min. The “average sweetness intensity at 10-20 minutes” value ([1]; chewing gum) was 2.0 intensity units and the “half-life of sweetness intensity” value [1, 4] was 5.5 min.
With `COC(=O)[C@H](Cc1ccccc1)NC(=O)[C@@H](N)CC(=O)O` [aspartame] (HELM PEPTIDE1{D.F.[CO[*:1]]}$$$$V2.0) the “half-life of sweetness intensity” value [1, 5] was 7.6 min, the “average sweetness loss rate at 6-10 minutes” value ([1]; chewing gum) was 0.52 intensity units/min and the “average sweetness intensity at 6-10 minutes” value ([1]; chewing gum) was 4.6 intensity units. The “average sweetness loss rate at 10-20 minutes” value ([1]; chewing gum) was 0.25 intensity units/min, the “average sweetness intensity at 10-20 minutes” value ([1]; chewing gum) was 2.3 intensity units and the “half-life of sweetness intensity” value [1, 4] was 6.4 min. The “half-life of peppermint flavor intensity” value [2, 6] was 19.7 min, the “average flavor intensity at 4-20 minutes” value [2, 7] was 4.2 intensity units and the “flavor loss rate at 4-20 minutes” value [2, 7] was 0.150 flavor intensity units per minute.
In the case of `COC(=O)[C@H](Cc1ccccc1)NC(=O)[C@H](CC(=O)O)NCCC(C)(C)C` [neotame, N-[N-(3,3-dimethylbutyl)-L-α-aspartyl]-L-phenylalanine 1-methyl ester], the “half-life of sweetness intensity” value ([1]; 0.75% flavor, neotame 100 ppm) is reported as 16.9 min, the “half-life of sweetness intensity” value ([1]; 1.00% flavor, neotame 100 ppm) is reported as 20.7 min and the “half-life of sweetness intensity” value ([1]; 1.25% flavor, neotame 100 ppm) is reported as 17.2 min. For the same compound, the “half-life of sweetness intensity” value [1, 5] was 17.0 min, the “sweetness intensity at 6 minutes” value ([1]; chewing gum, 100 ppm neotame, 6 minutes of chewing) was 5.2 sweetness intensity units and the “sweetness intensity at 10 minutes” value ([1]; chewing gum, 100 ppm neotame, 10 minutes of chewing) was 4.2 sweetness intensity units. For the same compound, the “sweetness intensity at 8 minutes” value ([1]; chewing gum, 100 ppm neotame, evaluation time between 6 and 10 minutes) was 4.6 sweetness intensity units, the “half-life of sweetness intensity” value [1, 4] was 14.9 min and the “half-life of peppermint flavor intensity” value ([2]; 0.75% flavor, neotame 100 ppm) was 33.1 min. The “average flavor intensity at 4-20 minutes” value [2, 8] was 3.9 intensity units, the “flavor loss rate at 4-20 minutes” value [2, 8] was 0.070 flavor intensity units per minute and the “half-life of peppermint flavor intensity” value ([2]; 1.00% flavor, neotame 100 ppm) was 31.7 min. For the same compound, the “average flavor intensity at 4-20 minutes” value [2, 9] was 4.0 intensity units, the “flavor loss rate at 4-20 minutes” value [2, 9] was 0.075 flavor intensity units per minute and the “half-life of peppermint flavor intensity” value ([2]; 1.25% flavor, neotame 100 ppm) was 31.3 min. The “average flavor intensity at 4-20 minutes” value [2, 10] was 4.2 intensity units, the “flavor loss rate at 4-20 minutes” value [2, 10] was 0.088 flavor intensity units per minute and the “half-life of peppermint flavor intensity” value [2, 6] was 44.3 min. The “average flavor intensity at 4-20 minutes” value [2, 7] was 4.6 intensity units, the “flavor loss rate at 4-20 minutes” value [2, 7] was 0.0875 flavor intensity units per minute and 0.088 flavor intensity units per minute and the “average flavor intensities at 4-20 minutes” value ([2]; chewing gums comprising neotame having less flavor amounts than 1.5%) was “around 4.0 intensity units”. The average flavor intensity [2, 11] was ≥ 3.5 flavor intensity units, the “average flavor loss rate” value [2, 11] was “less than 0.1 flavor intensity units per minute” and the average flavor intensity [2, 12] was ≥ 4 flavor intensity units. For the same compound, the “average flavor loss rate” value [2, 12] was “less than 0.1 flavor intensity units per minute” and the “sweetness potency (× sweeter than sucrose)” value [3] was “about 8000 ×”.
In the case of `O=C1NS(=O)(=O)c2ccccc21` [saccharin], the “average sweetness loss rate at 6-10 minutes” value ([1]; chewing gum) is reported as 0.52 intensity units/min, the “average sweetness intensity at 6-10 minutes” value ([1]; chewing gum) is reported as 3.1 intensity units and the “average sweetness loss rate at 10-20 minutes” value ([1]; chewing gum) is reported as 0.15 intensity units/min. The “average sweetness intensity at 10-20 minutes” value ([1]; chewing gum) was 1.2 intensity units and the “half-life of sweetness intensity” value [1, 4] was 4.5 min.
With `OC[C@H]1O[C@H](O[C@]2(CCl)O[C@H](CCl)[C@@H](O)[C@@H]2O)[C@H](O)[C@@H](O)[C@H]1Cl` [sucralose] the “average sweetness loss rate at 6-10 minutes” value ([1]; chewing gum) was 0.52 intensity units/min, the “average sweetness intensity at 6-10 minutes” value ([1]; chewing gum) was 3.3 intensity units and the “average sweetness loss rate at 10-20 minutes” value ([1]; chewing gum) was 0.16 intensity units/min. For the same compound, the “average sweetness intensity at 10-20 minutes” value ([1]; chewing gum) was 1.3 intensity units and the “half-life of sweetness intensity” value [1, 4] was 4.5 min.
For `OC[C@H]1O[C@@](CO)(O[C@H]2O[C@H](CO)[C@@H](O)[C@H](O)[C@H]2O)[C@@H](O)[C@@H]1O` [sucrose], the “average sweetness loss rate at 6-10 minutes” value ([1]; chewing gum) was 0.45 intensity units/min, the “average sweetness intensity at 6-10 minutes” value ([1]; chewing gum) was 2.1 intensity units and the “average sweetness loss rate at 10-20 minutes” value ([1]; chewing gum) was 0.11 intensity units/min. The “average sweetness intensity at 10-20 minutes” value ([1]; chewing gum) was 0.6 intensity units and the “half-life of sweetness intensity” value [1, 4] was 3.5 min.
